Source: US20250230193A1, “CYCLIC COMPOUND HAVING SELECTIVE KRAS INHIBITORY EFFECT ON HRAS AND NRAS” (CHUGAI SEIYAKU KABUSHIKI KAISHA, priority 2022, published 2025)

Assays:
[1] = target: GDP-bound NRAS wild-type protein (Homo sapiens, UniProt P01111); assay: Binding to NRAS by surface plasmon resonance (SPR), Single Cycle Kinetics; settings: SPR; KD ratio class
[2] = target: GDP-bound HRAS wild-type protein (Homo sapiens, UniProt P01112); assay: Binding to HRAS by surface plasmon resonance (SPR), Single Cycle Kinetics; settings: SPR; KD ratio class
Sequence of GDP-bound HRAS wild-type protein (P01112 whole entry): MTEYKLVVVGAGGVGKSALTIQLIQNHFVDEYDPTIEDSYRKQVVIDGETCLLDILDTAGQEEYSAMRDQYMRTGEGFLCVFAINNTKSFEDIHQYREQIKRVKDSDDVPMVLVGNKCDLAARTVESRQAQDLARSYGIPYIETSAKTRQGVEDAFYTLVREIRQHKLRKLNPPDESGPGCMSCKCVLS

[3] = system: human lung cancer strain NCI-H441; assay: cells; settings: NCI-H441, 96 h, read-out: NCI-H441 IC50 (nM)

Sequence of GDP-bound NRAS wild-type protein (P01111 whole entry): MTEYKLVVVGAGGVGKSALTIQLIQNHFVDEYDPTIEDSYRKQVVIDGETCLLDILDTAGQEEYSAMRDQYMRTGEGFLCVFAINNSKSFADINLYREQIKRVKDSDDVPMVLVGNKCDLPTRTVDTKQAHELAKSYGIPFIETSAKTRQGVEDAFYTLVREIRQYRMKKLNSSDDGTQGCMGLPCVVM

Structure (SMILES) | IC50 [3] [nM] | NRAS/KRAS (ratio of KD value for GDP-bound NRAS wild-type protein to KD value for KRAS) [1] | HRAS/KRAS (ratio of KD value for GDP-bound HRAS wild-type protein to KD value for KRAS) [2]
CCO[C@@H]1C[C@H]2C(=O)NC3(CCC3)C(=O)N(C)[C@@H](C3CCCC3)C(=O)N(C)[C@H](C(=O)N3CCCCC3)CC(=O)N(C)[C@@H](C)C(=O)N[C@@H]([C@@H](C)CC)C(=O)N(C)CC(=O)N(C)[C@H]3C/C=C\CCN(C3=O)[C@@H](Cc3ccc(C(F)(F)F)cc3)C(=O)N(C)CC(=O)N[C@@H](CCc3cc(F)c(C(F)(F)F)c(F)c3)C(=O)N2C1 [PP1292] | 24.6 | A (a compound having 10 or more and less than 20 is denoted as A) | A (a compound having 10 or more and less than 20 is denoted as A)
CC[C@H](C)[C@@H]1NC(=O)[C@H](CC)N(C)C(=O)C[C@@H](C(=O)N2CCOCC2)N(C)C(=O)[C@H](C2CCCC2)N(C)C(=O)C2(CCC2)NC(=O)[C@@H]2CCCN2C(=O)[C@H](CCc2cc(F)c(C(F)(F)F)c(F)c2)NC(=O)CN(C)C(=O)[C@H](Cc2ccc(C(F)(F)F)cc2)N2C[C@H](C)CC[C@@H](C2=O)N(C)C(=O)CN(C)C1=O [PP1384] | 13.5 | A (a compound having 10 or more and less than 20 is denoted as A) | B (a compound having 3 or more and less than 10 is denoted as B)
CCO[C@@H]1C[C@H]2C(=O)NC3(CCC3)C(=O)N(C)[C@@H](C(CC)CC)C(=O)N(C)[C@H](C(=O)N(C)C)CC(=O)N(C)[C@@H](CC(C)C)C(=O)N[C@@H]([C@@H](C)CC)C(=O)N(C)CC(=O)N(C)[C@H]3C/C=C\CCN(C3=O)[C@@H](Cc3ccc(C(F)(F)F)cc3)C(=O)N(C)CC(=O)N[C@@H](CCc3ccc4sccc4c3)C(=O)N2C1 [PP1225] | 92.5 | AA (a compound having 20 or more is denoted as AA) | A (a compound having 10 or more and less than 20 is denoted as A)
CCC[C@H]1C(=O)N[C@@H]([C@@H](C)CC)C(=O)N(C)CC(=O)N(C)[C@H]2C/C=C\CCN(C2=O)[C@@H](Cc2ccc(C(F)(F)F)cc2)C(=O)N(C)CC(=O)N[C@@H](CCc2cc(F)c(C(F)(F)F)c(F)c2)C(=O)N2C[C@H](OCC)C[C@H]2C(=O)NC2(CCC2)C(=O)N(C)[C@@H](C2CCCC2)C(=O)N(C)[C@H](C(=O)N2CCCCC2)CC(=O)N1C [PP1294] | 10 | A (a compound having 10 or more and less than 20 is denoted as A) | A (a compound having 10 or more and less than 20 is denoted as A)
CCO[C@@H]1C[C@H]2C(=O)NC3(CCC3)C(=O)N(C)[C@@H](C3CCCC3)C(=O)N(C)[C@H](C(=O)N3CCCCC3)CC(=O)N(C)[C@@H](CC)C(=O)N[C@@H]([C@@H](C)CC)C(=O)N(C)CC(=O)N(C)[C@H]3C/C=C\CCN(C3=O)[C@@H](Cc3ccc(C(F)(F)F)cc3)C(=O)N(C)CC(=O)N[C@@H](CCc3cc(F)c(C(F)(F)F)c(F)c3)C(=O)N2C1 [PP1289] | 34.7 | AA (a compound having 20 or more is denoted as AA) | A (a compound having 10 or more and less than 20 is denoted as A)
CCO[C@@H]1C[C@H]2C(=O)NC3(CCC3)C(=O)N(C)[C@@H](C(CC)CC)C(=O)N(C)[C@H](C(=O)N(C)C)CC(=O)N(C)[C@@H](C)C(=O)N[C@@H]([C@@H](C)CC)C(=O)N(C)CC(=O)N(C)[C@H]3C/C=C\CCN(C3=O)[C@@H](Cc3ccc(C(F)(F)F)cc3)C(=O)N(C)CC(=O)N[C@@H](CCc3ccc(Cl)c(Cl)c3)C(=O)N2C1 [PP1214] | 93.4 | AA (a compound having 20 or more is denoted as AA) | A (a compound having 10 or more and less than 20 is denoted as A)
CCO[C@@H]1C[C@H]2C(=O)NC3(CCC3)C(=O)N(C)[C@@H](C(CC)CC)C(=O)N(C)[C@H](C)CC(=O)N(C)[C@@H](CC3CCCC3)C(=O)N[C@@H]([C@@H](C)CC)C(=O)N(C)CC(=O)N(C)[C@H]3C/C=C\CCN(C3=O)[C@@H](Cc3ccc(F)cc3C)C(=O)N(C)CC(=O)N[C@@H](CCc3cc(F)c(C(F)(F)F)c(F)c3)C(=O)N2C1 [PP1522] | 567 | A (a compound having 10 or more and less than 20 is denoted as A) | A (a compound having 10 or more and less than 20 is denoted as A)

Further lines, with some results ahead:

IC50 [3] [nM] | Structure (SMILES) | NRAS/KRAS (ratio of KD value for GDP-bound NRAS wild-type protein to KD value for KRAS) [1] | HRAS/KRAS (ratio of KD value for GDP-bound HRAS wild-type protein to KD value for KRAS) [2]
2.6 | CCO[C@@H]1C[C@H]2C(=O)NC3(CC(C)(C)C3)C(=O)N(C)[C@@H](C3CCCC3)C(=O)N(C)[C@H](C(=O)N(C)C)CC(=O)N(C)[C@@H](CC3CC3)C(=O)N[C@@H]([C@@H](C)CC)C(=O)N(C)CC(=O)N(C)[C@H]3C/C=C\CCN(C3=O)[C@@H](Cc3ccc(C(F)(F)F)cc3)C(=O)N(C)CC(=O)N[C@@H](CCc3ccc(C(F)(F)F)c(OC)c3)C(=O)N2C1 [PP1563] | A (a compound having 10 or more and less than 20 is denoted as A) | A (a compound having 10 or more and less than 20 is denoted as A)
106 | CCCCCC[C@H]1C(=O)N[C@@H]([C@@H](C)CC)C(=O)N(C)CC(=O)N(C)[C@H]2C/C=C\CCN(C2=O)[C@@H](Cc2ccc(C(F)(F)F)cc2)C(=O)N(C)CC(=O)N[C@@H](CCc2ccc3sccc3c2)C(=O)N2C[C@H](OCC)C[C@H]2C(=O)NC2(CCC2)C(=O)N(C)[C@@H](C(CC)CC)C(=O)N(C)[C@H](C(=O)N(C)C)CC(=O)N1C [PP1226] | AA (a compound having 20 or more is denoted as AA) | A (a compound having 10 or more and less than 20 is denoted as A)
34.1 | CC[C@H](C)[C@@H]1NC(=O)[C@H](CC)N(C)C(=O)C[C@@H](C(=O)N(C)C)N(C)C(=O)[C@H](C2CCCC2)N(C)C(=O)C2(CCC2)NC(=O)[C@@H]2C[C@@H](C(F)(F)F)CN2C(=O)[C@H](CCc2cc(F)c(C(F)(F)F)c(F)c2)NC(=O)CN(C)C(=O)[C@H](CC2CCCCC2)N2CC/C=C\C[C@@H](C2=O)N(C)C(=O)CN(C)C1=O [PP1465] | A (a compound having 10 or more and less than 20 is denoted as A) | A (a compound having 10 or more and less than 20 is denoted as A)
26.3 | CCO[C@@H]1C[C@H]2C(=O)NC3(CCC3)C(=O)N(C)[C@@H](C3CCCC3)C(=O)N(C)[C@H](C(=O)N3CCOCC3)CC(=O)N(C)[C@@H](CC3CCC3)C(=O)N[C@@H]([C@@H](C)CC)C(=O)N(C)CC(=O)N(C)[C@H]3C/C=C\CCN(C3=O)[C@@H](Cc3ccc(C)cc3)C(=O)N(C)CC(=O)N[C@@H](CCc3cc(F)c(C(F)(F)F)c(F)c3)C(=O)N2C1 [PP1424] | A (a compound having 10 or more and less than 20 is denoted as A) | A (a compound having 10 or more and less than 20 is denoted as A)
